Data set [1] has as its target Cytochrome P450 2D6 (Homo sapiens, UniProt P10635).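 Further: CYP2D6 member of a cytochrome P450 panel assay.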
Data set [2] addresses Keap1/Nrf2 (Homo sapiens, UniProt Q14145). The experiment in a line: disruptors of Keap1 binding to Nrf2 peptide – biochemical, fluorescence polarization, cherry-picked samples, dose response (AID 588683). Background: In fluorescence polarisation assays a small probe gives low polarisation when free and higher when bound to something large.
The target in data set [3] is Peroxisome proliferator-activated receptor gamma/Nuclear receptor coactivator 1 (Homo sapiens, UniProt P37231). In words: TR-FRET dose response biochemical High Throughput Screening assay for agonists of the steroid receptor coactivator 1 (SRC-1) recruitment by the peroxisome proliferator-activated receptor gamma (PPAR gamma): non-selective agonists. [Related pubchem assays (depositor defined):AID1300, AID1808, AID504735, AID631]. Format: protein assay. A general note: Time-resolved FRET reads energy transfer from a long-lived donor to a nearby acceptor.

Data set [4] deals with Peroxisome proliferator-activated receptor gamma/Nuclear receptor coactivator 3 (Homo sapiens, UniProt P37231). In words: TR-FRET dose response biochemical High Throughput Screening assay for agonists of the steroid receptor coactivator 3 (SRC-3) recruitment by the peroxisome proliferator-activated receptor gamma (PPAR gamma): non-selective agonists. [Related pubchem assays: 1301 (Confirmation screen.), 1048 (Primary screen.)]. Format: functional.

Data set [5] deals with Peroxisome proliferator-activated receptor gamma/Nuclear receptor coactivator 2 (Homo sapiens, UniProt P37231). The experiment in a line: TR-FRET dose response biochemical High Throughput Screening assay for agonists of the steroid receptor coactivator 2 (SRC-2) recruitment by the peroxisome proliferator-activated receptor gamma (PPAR gamma): non-selective agonists. [Related pubchem assays: 1297, 1032 ]. Format: functional.

The target of data set [6] is Peroxisome proliferator-activated receptor gamma/Nuclear receptor corepressor 2 (Homo sapiens, UniProt P37231+Q9Y618). Format: functional.
Data set [7] concerns the target Photoreceptor-specific nuclear receptor (Homo sapiens, UniProt Q9Y5X4). Format: functional.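 Further: potency for compounds that break the NR2E3 corepressor complex and count as activators.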
The subject of data set [8] is Escherichia coli. In words: microbe, parasite or virus in culture.
Data set [9] relates to Escherichia coli. The experiment in a line: microbe, parasite or virus in culture. This is another data set of the same source.
The target in data set [10] is T1, Protein Tat (Human immunodeficiency virus type 1 group M subtype B (isolate HXB2)(HIV-1), UniProt P04608).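 Further: tat binding to TAR RNA read out by fluorescence polarization.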
T1 sequence (P04608 whole entry): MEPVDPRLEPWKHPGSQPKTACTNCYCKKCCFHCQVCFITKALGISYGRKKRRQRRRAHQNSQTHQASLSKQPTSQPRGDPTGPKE
Format: functional.

In data set [11] the target is T2, Cysteine protease ATG4B (Homo sapiens, UniProt Q9Y4P1).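 Further: Fluorescence-based dose-response confirmation assay measuring inhibition of ATG4B activity.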
T2 sequence (Q9Y4P1 whole entry): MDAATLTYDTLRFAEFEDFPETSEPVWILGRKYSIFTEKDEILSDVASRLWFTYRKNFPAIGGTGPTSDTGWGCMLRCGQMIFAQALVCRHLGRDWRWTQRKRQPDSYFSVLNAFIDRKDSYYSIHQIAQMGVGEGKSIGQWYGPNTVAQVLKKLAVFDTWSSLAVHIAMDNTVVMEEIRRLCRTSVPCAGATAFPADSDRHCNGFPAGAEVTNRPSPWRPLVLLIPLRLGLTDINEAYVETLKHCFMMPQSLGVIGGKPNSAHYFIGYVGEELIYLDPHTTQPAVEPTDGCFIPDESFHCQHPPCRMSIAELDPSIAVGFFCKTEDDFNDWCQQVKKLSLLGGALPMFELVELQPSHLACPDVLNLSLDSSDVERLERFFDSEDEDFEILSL
Format: functional.

Data set [12] concerns the target Phospholipase A2 (Homo sapiens, UniProt P04054). Format: functional.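 Further: confirmatory dose-response counterscreen on phospholipase A2, testing hits that came from an ultra-high-throughput screen for ATG4B inhibitors.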
The test system of data set [13] is CHO. The experiment in a line: CHO cell viability loss, potency – luminescence, cytotoxicity control for TLR9-MyD88 binding inhibitor project, dose response (AID 588339).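 Further: CHO cells stably coexpressing TLR9 and MyD88 fusions from primary screen; compound exposure lasted 48 hours before viability readout.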 Conditions: Cricetulus griseus. Format: functional, cell-based, hamster.
Data set [14] concerns the target Beta Lactamase (Pseudomonas aeruginosa, UniProt Q932Y6). The experiment in a line: BLA reporter interference, concentration series – BLA reporter cells, FRET fluorescence, artefact control for TLR9-MyD88 binding inhibitor project, dose response (AID 588341).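 Further: cell based assay in CHO-K1 cells stably expressing beta-lactamase.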 Format: cell-based.
Data set [15] deals with Cytochrome P450 2C19 (Homo sapiens, UniProt P33261). In words: Cytochrome panel assay with activity outcomes. Panel member name: p450-cyp2c19 Compounds with AC50 equal or less than 10 uM are considered active. Format: functional. Conditions: read-out: AC50.
Data set [16] addresses Cytochrome P450 2C9 (Homo sapiens, UniProt P11712).
Data set [17] deals with ATP-dependent molecular chaperone HSP82 (Candida albicans (strain WO-1) (Yeast), UniProt C4YTQ8). The experiment in a line: steroid-induced GRE reporter decrease in yeast – S. cerevisiae, luminescence, Hsp90 inhibitor project, dose response (AID 2400).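 Further: beta-galactosidase luminescence from glucocorticoid response element reporter as proxy for Hsp90 function; inhibitor potency where signal loss means Hsp90 inhibition.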 Format: functional, cell-based.
Data set [18] addresses T3, Serine/threonine-protein phosphatase (Candida dubliniensis (strain CD36 / CBS 7987 / NCPF 3949 / NRRLY-17841) (Yeast), UniProt B9W6M3).
T3 sequence (B9W6M3 whole entry): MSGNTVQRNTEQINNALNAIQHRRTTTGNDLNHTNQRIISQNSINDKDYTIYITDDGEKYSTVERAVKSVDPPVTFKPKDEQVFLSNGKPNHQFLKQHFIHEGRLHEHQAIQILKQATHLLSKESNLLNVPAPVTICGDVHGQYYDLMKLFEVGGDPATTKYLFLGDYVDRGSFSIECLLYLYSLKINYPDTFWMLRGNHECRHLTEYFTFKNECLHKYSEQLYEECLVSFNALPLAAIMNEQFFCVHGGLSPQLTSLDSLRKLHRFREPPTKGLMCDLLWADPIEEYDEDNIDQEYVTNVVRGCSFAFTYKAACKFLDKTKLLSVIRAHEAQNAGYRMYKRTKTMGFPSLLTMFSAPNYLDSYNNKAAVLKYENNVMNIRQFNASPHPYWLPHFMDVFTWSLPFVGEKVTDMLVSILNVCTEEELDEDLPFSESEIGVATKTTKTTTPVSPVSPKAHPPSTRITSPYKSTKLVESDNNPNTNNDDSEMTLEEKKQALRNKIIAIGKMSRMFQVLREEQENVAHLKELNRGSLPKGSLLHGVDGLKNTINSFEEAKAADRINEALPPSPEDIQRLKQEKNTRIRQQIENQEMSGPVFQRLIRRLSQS
In words: blockers of CaCl2-induced CDRE-lacZ signaling – S. cerevisiae, luminescence, secondary, dose response (AID 2388).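 Further: yeast reporter cells carrying a calcineurin-responsive lacZ construct stimulated with calcium chloride; luminescent beta-galactosidase reporter signal in whole cells rather than isolated phosphatase activity; potency for inhibition where a drop in reporter signal means calcineurin blockade.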 Format: functional, cell-based.

For data set [19], the target named is Heat shock protein HSP 90-alpha (Homo sapiens, UniProt P07900). Format: functional, organism-based.
For data set [20], the system named is Streptococcus. In words: GAS UMAA2166 growth inhibition – luminescence, BacTiterGlo, counter-screen for streptokinase expression inhibitor project, dose response (AID 1915).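 Further: potency for reduction of bacterial viability or growth.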 Format: functional, organism-based. (In general: Counterscreens check selectivity or assay interference.)
Data set [21] deals with Streptococcus sp. 'group A'. In words: Streptococcus pyogenes SK(-)GAS viability under kanamycin – luminescence, BacTiterGlo, confirmation, counter-screen for streptokinase expression inhibitor project, dose response (AID 1900). Format: functional, organism-based.
Data set [22] in a line: fluconazole-exposed Candida albicans growth modulators – fluorescence, retest, confirmation (AID 2467). Format: functional, cell-based.
Data set [23] can be described thus: NIH-3T3 fibroblast cytotoxicity, dose response, cytotoxicity control, cell-based, fluorescence, Alamar Blue, secondary assay (AID 2327).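 Further: NIH-3T3 mouse fibroblasts cultured with fluconazole at 8 µg/mL.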 Format: functional.
Data set [24] deals with T4, Apoptotic protease-activating factor 1 (Homo sapiens, UniProt O14727).
T4 sequence (O14727 whole entry): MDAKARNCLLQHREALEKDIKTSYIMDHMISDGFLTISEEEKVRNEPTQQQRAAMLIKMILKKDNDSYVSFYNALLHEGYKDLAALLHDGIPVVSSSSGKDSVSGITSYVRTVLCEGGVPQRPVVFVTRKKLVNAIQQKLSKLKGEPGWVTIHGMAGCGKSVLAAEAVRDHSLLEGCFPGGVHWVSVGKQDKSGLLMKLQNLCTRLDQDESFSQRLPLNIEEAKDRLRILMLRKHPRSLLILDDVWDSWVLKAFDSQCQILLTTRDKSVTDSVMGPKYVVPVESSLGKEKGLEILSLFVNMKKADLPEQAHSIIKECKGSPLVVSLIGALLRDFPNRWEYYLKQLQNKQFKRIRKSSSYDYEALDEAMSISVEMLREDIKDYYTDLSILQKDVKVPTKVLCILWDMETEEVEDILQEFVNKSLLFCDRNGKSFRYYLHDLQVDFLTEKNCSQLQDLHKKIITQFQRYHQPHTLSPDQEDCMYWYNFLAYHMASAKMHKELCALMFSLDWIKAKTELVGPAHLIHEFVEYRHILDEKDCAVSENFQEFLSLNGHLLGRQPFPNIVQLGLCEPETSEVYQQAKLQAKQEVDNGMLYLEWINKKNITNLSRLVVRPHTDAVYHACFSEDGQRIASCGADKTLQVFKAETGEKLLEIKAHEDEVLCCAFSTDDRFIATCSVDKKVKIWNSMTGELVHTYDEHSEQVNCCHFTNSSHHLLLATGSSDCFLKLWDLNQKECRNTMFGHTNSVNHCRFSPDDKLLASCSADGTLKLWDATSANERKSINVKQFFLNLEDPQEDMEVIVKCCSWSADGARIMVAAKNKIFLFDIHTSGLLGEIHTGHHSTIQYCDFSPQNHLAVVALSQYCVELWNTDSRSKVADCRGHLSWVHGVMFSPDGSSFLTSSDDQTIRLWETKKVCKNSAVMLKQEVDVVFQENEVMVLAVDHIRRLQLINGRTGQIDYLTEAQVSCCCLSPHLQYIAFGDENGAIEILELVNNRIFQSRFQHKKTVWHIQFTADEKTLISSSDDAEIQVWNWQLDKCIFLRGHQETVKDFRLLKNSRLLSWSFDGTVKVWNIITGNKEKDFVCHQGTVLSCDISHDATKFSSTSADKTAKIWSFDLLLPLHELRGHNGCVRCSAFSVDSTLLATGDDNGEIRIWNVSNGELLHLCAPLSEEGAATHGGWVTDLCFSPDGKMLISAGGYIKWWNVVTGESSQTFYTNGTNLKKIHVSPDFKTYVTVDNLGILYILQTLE
The experiment in a line: SAR analysis of small molecule inhibitors of Apaf-1 in a Fluorescent assay. Format: functional. Conditions: read-out: IC50_Mean.

Data set [25] can be described thus: microbe, parasite or virus in culture. Format: functional. Conditions: Mycobacterium tuberculosis.
Data set [26] can be described thus: cells. Format: functional, cell-based.
Data set [27] is described as follows: cells. Format: functional, cell-based. This is another data set of the same source.
Data set [28] can be described thus: HEK-293T viability loss after treatment – luminescence, T-cell screen hits, cytotoxicity control for TCR NF-kB inhibitor project, dose response (AID 489026).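 Further: cells exposed to compound about 14 hours before the viability readout.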 Format: functional, cell-based.
For data set [29], the system named is INS1. The experiment in a line: INS-1E survival protection against cytokine death – cell-based, luminescence, retest, dose response (AID 449756).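 Further: cell death triggered by IL-1 beta plus TNF-alpha plus IFN-gamma mixture; protective hits raise ATP signal compared with cytokine alone wells.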 Format: functional. As to conditions: Rattus norvegicus.

SMILES strings stand for the structures. The source made the active and inactive calls.

As a reminder, the AC50 is the midpoint of the concentration-response curve, whichever way the signal moves. The term EC50 denotes the concentration at which the effect is half-maximal.

Chain of Cytochrome P450 2D6 (P10635 whole entry): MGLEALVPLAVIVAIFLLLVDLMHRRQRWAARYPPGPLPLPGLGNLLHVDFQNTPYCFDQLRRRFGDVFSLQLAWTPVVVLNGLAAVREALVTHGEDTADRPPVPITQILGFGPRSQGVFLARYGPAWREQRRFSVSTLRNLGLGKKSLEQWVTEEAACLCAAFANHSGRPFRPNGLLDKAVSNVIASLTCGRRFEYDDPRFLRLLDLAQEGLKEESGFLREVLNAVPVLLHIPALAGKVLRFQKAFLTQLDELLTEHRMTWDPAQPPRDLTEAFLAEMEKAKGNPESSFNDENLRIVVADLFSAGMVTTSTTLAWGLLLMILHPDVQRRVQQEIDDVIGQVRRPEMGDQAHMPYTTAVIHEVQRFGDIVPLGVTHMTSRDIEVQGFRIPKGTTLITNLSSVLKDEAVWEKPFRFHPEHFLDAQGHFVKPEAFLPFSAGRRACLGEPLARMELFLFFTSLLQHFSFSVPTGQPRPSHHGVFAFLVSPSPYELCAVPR
Chain of Peroxisome proliferator-activated receptor gamma/Nuclear receptor coactivator 3 (P37231 whole entry): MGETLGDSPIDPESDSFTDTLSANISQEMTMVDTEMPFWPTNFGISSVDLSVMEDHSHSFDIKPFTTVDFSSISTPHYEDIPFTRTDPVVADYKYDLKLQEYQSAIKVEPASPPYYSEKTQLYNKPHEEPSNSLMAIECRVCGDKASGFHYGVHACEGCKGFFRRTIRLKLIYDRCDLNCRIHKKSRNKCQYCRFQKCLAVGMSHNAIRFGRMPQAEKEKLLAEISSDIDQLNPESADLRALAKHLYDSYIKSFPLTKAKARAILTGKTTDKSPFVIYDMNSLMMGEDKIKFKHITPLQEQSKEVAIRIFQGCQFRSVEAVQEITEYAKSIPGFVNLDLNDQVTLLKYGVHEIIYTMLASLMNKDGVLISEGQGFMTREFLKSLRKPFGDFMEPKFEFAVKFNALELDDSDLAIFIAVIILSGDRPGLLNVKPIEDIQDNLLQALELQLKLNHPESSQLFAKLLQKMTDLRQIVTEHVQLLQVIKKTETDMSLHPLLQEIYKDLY
Chain of Peroxisome proliferator-activated receptor gamma/Nuclear receptor coactivator 3 (Q9Y6Q9 whole entry, further chain): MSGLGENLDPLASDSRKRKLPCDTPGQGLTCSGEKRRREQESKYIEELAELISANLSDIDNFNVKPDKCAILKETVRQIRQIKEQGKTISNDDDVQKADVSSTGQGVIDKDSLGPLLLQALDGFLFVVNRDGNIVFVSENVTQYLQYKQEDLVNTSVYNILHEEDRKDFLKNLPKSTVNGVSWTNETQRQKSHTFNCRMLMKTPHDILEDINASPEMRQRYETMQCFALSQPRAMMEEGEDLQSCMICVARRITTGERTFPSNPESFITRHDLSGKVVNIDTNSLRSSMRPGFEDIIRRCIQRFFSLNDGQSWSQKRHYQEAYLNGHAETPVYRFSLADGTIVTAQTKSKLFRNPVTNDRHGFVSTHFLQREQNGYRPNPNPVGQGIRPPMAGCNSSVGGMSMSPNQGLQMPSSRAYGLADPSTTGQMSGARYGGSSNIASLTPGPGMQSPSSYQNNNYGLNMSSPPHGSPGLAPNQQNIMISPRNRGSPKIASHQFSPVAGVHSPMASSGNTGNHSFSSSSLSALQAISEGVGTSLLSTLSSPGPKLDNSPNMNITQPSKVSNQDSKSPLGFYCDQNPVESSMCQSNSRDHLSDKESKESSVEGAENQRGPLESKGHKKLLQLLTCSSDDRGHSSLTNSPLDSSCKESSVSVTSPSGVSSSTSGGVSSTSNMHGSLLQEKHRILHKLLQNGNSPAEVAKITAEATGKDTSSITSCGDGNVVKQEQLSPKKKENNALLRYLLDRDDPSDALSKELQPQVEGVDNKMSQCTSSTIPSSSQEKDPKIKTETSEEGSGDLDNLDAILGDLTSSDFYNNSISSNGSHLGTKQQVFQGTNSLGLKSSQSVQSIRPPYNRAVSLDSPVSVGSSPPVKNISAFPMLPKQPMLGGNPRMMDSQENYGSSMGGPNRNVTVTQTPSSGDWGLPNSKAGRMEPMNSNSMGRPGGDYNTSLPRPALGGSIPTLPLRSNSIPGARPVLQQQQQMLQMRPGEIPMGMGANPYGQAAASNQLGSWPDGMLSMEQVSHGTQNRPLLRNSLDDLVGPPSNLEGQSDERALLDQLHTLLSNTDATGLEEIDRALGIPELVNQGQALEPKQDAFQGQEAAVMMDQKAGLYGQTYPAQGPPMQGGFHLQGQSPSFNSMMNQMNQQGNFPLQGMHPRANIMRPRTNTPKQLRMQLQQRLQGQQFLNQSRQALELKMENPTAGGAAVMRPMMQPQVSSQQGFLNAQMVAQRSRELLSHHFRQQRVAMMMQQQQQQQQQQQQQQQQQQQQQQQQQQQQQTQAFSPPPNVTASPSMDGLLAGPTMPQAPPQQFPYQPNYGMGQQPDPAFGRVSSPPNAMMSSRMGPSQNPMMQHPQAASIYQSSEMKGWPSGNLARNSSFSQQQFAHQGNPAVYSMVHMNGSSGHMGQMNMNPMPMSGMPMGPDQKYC
Chain of Peroxisome proliferator-activated receptor gamma/Nuclear receptor coactivator 1 (P37231 whole entry): as the sequence (P37231 whole entry) above
Chain of Peroxisome proliferator-activated receptor gamma/Nuclear receptor coactivator 1 (Q15788 whole entry, further chain): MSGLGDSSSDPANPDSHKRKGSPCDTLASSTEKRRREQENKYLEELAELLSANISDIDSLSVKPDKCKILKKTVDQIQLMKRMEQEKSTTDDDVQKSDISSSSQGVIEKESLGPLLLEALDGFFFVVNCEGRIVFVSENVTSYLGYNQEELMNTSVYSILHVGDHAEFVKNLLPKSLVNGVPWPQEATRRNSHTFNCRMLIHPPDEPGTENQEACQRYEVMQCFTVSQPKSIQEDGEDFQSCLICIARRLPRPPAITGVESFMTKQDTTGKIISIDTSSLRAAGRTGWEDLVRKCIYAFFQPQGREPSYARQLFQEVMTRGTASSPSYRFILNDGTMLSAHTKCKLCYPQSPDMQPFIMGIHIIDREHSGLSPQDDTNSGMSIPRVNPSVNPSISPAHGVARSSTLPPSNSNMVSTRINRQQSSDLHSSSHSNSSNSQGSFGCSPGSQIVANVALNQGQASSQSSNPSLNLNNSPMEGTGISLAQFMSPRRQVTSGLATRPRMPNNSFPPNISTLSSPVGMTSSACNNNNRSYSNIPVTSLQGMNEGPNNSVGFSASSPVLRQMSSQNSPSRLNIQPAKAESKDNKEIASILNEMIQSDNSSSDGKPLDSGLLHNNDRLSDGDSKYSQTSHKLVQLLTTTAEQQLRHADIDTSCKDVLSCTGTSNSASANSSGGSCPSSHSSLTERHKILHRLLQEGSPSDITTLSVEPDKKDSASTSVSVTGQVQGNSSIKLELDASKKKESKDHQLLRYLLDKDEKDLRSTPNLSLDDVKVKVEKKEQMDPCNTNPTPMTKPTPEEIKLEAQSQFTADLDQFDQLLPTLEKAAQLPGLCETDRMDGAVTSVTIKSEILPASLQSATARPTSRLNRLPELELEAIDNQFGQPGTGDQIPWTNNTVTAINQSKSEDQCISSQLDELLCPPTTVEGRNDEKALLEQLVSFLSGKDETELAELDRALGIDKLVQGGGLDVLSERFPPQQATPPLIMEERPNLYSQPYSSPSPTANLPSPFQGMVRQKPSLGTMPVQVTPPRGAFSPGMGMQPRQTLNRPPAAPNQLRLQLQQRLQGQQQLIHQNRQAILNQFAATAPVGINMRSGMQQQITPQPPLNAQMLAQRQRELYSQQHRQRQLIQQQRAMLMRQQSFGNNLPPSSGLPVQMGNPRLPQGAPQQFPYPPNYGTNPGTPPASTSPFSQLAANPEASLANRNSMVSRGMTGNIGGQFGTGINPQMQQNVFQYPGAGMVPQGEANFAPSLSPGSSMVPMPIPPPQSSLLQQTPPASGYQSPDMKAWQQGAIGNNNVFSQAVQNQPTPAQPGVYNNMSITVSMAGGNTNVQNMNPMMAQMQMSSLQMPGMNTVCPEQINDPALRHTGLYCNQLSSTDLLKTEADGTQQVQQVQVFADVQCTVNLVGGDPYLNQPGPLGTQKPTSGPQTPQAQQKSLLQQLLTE
Chain of ATP-dependent molecular chaperone HSP82 (C4YTQ8 whole entry): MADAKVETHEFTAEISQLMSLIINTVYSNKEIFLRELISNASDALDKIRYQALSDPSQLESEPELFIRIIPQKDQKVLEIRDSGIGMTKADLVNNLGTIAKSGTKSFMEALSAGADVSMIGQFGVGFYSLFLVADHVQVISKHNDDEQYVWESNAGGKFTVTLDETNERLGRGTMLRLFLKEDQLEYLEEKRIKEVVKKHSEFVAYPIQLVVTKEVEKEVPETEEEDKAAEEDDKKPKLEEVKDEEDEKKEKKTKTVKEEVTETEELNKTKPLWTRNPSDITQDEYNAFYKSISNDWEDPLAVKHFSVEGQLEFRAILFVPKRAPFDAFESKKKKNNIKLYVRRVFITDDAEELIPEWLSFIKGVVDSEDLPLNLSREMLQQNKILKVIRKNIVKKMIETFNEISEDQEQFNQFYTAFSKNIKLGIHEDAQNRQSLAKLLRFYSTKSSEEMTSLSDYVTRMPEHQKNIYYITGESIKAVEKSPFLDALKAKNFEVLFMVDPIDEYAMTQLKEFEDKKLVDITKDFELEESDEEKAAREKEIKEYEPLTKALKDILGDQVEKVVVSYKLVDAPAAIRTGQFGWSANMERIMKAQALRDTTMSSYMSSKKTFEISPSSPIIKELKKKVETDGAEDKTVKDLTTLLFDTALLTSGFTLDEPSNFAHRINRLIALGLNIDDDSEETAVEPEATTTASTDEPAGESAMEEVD

For `C[C@]12CC[C@H]3c4ccc(O)cc4CC[C@@H]3[C@H]1C/C(=N/O)[C@H]2O`, in [1], the AC50 entry is “inconclusive”.

In the case of `Nc1ccc(S(=O)(=O)NCCS(=O)(=O)O)cc1`, the AC50 result in [1] is recorded as “inconclusive”.

With `CN1CC=C2C(C#N)=C(N)C(C#N)(C#N)[C@H](c3cccs3)[C@H]2C1`, the AC50 in data set [2] is > 52 µM (inactive).

Take `O=C(C1=C(O)C(=O)N(CCc2ccccc2)C1c1ccncc1)c1cc2ccccc2o1` (configuration not stated): the EC50 is > 79.4 µM (inactive) in data set [3], > 79.4 µM (not active) in data set [4] and 26.1 µM (not active) in [5]. Also, the IC50 was 7.02 µM (active) in data set [6] and > 39.8 µM (not active) in data set [7].

Turning to `O=C(CCSc1ccccc1)NCC1CCCO1` (configuration not stated), in [8], the AC50 was 30.4 µM (active).

Consider `CN(C)[C@@H]1C(O)=C(C(N)=O)C(=O)[C@@]2(O)C(O)=C3C(=O)c4c(O)ccc(Cl)c4[C@@](C)(O)C3C[C@@H]12` (some centres not stated), for which the AC50 in [9] is 1.2 µM (active); in data set [8], 47 µM (active). Besides, the results for the IC50 in data set [10], in [11] and in [12] were > 100 µM (active), 6.14 µM (active) and 5.75 µM (active), respectively.

For the molecule `CC(=O)c1sc2nc(-c3ccc(C)cc3)c3c(c2c1N)CCCC3`, the IC50 is 36.7 µM (inactive) in [13] and 3.73 µM (active) in data set [14].

`CCn1c(=O)cc(SCC(=O)Nc2cc(OC)c(OC)c(OC)c2)c2ccccc21`: the half-maximal activity concentration (AC50) result in data set [1] is “inconclusive”; in data set [15], 0.355 µM (inconclusive); in [16] it was “inconclusive”. Also, the EC50 is > 79.4 µM (inactive) in data set [3], > 79.4 µM (not active) in [4] and 76.2 µM (not active) in data set [5].

For `Oc1c(C(c2ccc(Cl)cc2)N2CCCC2)cc(Cl)c2cccnc12` (configuration not stated), the EC50 is 22.5 µM (active) in data set [17]; > 180 µM (inactive) in data set [18]; 1.41 µM (active) in data set [20]; 1.34 µM (active) in data set [21]; 0.135 µM (active) in data set [22]; 15 µM (active) in data set [23]. The AC50 in data set [19] is 2.02 µM (active).

On to `CN(CC(=O)NCc1cccnc1)S(=O)(=O)c1ccccc1`, for which the AC50 in data set [9] was 54.1 µM (active).

For `CCN(CC)CCOC(=O)c1ccc(N/C=C(\C#N)c2nc(-c3cccs3)cs2)cc1`, in data set [24], the IC50 was 13.7 µM (active).

As for `CCN(CC)CCOC(=O)c1ccc(N/C=C(\C#N)c2nc(-c3ccc(Br)cc3)cs2)cc1`, in data set [24], the IC50 is 14.7 µM (active).

Consider `COc1cccc(/C=N/Nc2ncnc3scc(-c4ccccc4)c23)c1O`, for which the concentration giving a half-maximal response (EC50) is 17.7 µM (active) in [17]; 2.21 µM (active) in data set [26]; > 180 µM (inactive) in [18]; 0.753 µM (active) in data set [22]; > 150 µM (inactive) in [23]; > 350 µM (not active) in data set [27]. Further, the CC50 in [25] is 1.31 µM (active). Moreover, the AC50 is 24.5 µM (active) in [19] and 0.432 µM (active) in [29]. In data set [28], the IC50 is 62.5 µM (inactive).

These data come from ChEMBL document CHEMBL1201862, “PubChem BioAssay data set” (2004).
